This note sets out measurements from patent publication US9868772B2 (INDIANA UNIVERSITY RESEARCH AND TECHNOLOGY CORPORATION, priority 2012, dated 2018).

pEC50: −log10 of the molar value. Numbered stars: 1 amine (or outer) side, 2 acyl side, 3 side chain; on linkers, the order of the positions; unused ones are H or OH. Side chains are listed from the residue outwards. Peptide text beside a SMILES is read from it. * marks the point of attachment. γGlu = O=C(O)[C@H](CCC(=O)[*:2])N[*:1]; Desaminotyrosyl = O=C(CCc1ccc(O)cc1)*; Palmitoyl = CCCCCCCCCCCCCCCC(=O)*

Holding throughout (test): cAMP induction, firefly luciferase reporter assay in HEK293 cells co-transfected with receptor
Common to all, as to type: cell-based
What all share (conditions): Table 1, analogs of SEQ ID NO: 37
For orientation: A reporter such as luciferase makes a cellular process visible.

For one assay, the target named is T1, GLP-1 receptor (Homo sapiens, UniProt P43220).
T1 construct: expressed in transfected cells; host or cells: HEK293
T1 sequence (P43220 24-463): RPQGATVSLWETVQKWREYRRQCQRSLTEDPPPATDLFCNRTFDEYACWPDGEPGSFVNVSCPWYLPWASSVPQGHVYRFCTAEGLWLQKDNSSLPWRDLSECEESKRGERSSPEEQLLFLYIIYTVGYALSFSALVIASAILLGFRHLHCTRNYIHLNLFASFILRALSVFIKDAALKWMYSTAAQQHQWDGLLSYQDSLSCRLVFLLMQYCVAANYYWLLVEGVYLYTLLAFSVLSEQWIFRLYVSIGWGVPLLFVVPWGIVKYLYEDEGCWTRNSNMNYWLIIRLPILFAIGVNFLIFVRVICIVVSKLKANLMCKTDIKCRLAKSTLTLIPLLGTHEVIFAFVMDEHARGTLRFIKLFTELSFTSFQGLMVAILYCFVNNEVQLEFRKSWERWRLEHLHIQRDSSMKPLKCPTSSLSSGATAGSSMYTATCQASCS
The method, then: (§1) The ability of glucagon analogs to induce cAMP was measured in a firefly luciferase-based reporter assay. […] At the end of the incubation 100 microliters of LucLite luminescence substrate reagent (Perkin-Elmer, Wellesley, Mass.) were added to each well. […] Effective 50% concentrations were calculated by using Origin software (OriginLab, Northampton, Mass.

Another assay concerns the target T2, glucagon receptor (Homo sapiens, UniProt P47871).
T2 construct: expressed in transfected cells; host or cells: HEK293
The method, then:
as §1

A further assay concerns the target T3, GIP receptor (Homo sapiens, UniProt P48546).
T3 construct: expressed in transfected cells; host or cells: HEK293
T3 sequence (P48546 22-466): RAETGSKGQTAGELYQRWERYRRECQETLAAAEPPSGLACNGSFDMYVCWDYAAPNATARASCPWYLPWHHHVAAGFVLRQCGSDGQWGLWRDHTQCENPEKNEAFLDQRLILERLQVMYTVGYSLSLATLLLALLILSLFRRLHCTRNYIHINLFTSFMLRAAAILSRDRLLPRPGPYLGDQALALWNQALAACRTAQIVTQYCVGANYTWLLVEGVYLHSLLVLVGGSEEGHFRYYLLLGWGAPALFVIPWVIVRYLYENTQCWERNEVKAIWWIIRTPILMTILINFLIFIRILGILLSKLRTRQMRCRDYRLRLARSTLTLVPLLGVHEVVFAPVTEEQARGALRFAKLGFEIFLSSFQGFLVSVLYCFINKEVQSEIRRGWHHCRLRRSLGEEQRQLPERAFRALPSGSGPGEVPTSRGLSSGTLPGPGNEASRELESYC
The method, then:
as §1

T2 sequence (P47871 26-477): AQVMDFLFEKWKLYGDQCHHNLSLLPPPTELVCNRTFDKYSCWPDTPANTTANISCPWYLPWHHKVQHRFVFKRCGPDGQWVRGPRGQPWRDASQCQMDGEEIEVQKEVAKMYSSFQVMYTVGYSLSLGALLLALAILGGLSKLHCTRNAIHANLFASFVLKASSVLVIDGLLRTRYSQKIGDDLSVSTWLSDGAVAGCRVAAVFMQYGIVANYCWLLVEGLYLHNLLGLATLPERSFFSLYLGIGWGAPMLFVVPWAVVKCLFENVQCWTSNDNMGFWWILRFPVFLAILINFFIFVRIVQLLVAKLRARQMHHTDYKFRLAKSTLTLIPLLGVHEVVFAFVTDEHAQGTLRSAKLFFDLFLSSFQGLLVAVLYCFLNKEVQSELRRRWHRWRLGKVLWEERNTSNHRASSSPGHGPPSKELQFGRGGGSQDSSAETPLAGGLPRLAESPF

As a reminder, the pEC50 is the EC50 on a negative log10 scale, so that one unit is a factor of ten. As for `CCCCCCCCCCCCCCCC(=O)N[C@@H](CCC(=O)NCCCC[C@H](NC(=O)[C@H](CC(=O)O)NC(=O)[C@H](CO)NC(=O)[C@@H](NC(=O)[C@H](Cc1ccccc1)NC(=O)[C@@H](NC(=O)CNC(=O)[C@H](CCC(N)=O)NC(=O)C(C)(C)NC(=O)[C@@H](N)Cc1c[nH]cn1)[C@@H](C)O)[C@@H](C)O)C(=O)N[C@@H](CO)C(=O)N[C@@H](CCCCN)C(=O)N[C@@H](Cc1ccc(O)cc1)C(=O)N[C@@H](CC(C)C)C(=O)N[C@@H](CC(=O)O)C(=O)N[C@@H](CCC(=O)O)C(=O)N[C@@H](CCCNC(=N)N)C(=O)N[C@@H](C)C(=O)N[C@@H](C)C(=O)N[C@@H](CCC(N)=O)C(=O)N[C@@H](CC(=O)O)C(=O)N[C@@H](Cc1ccccc1)C(=O)N[C@H](C(=O)N[C@@H](CCC(N)=O)C(=O)N[C@@H](Cc1c[nH]c2ccccc12)C(=O)N[C@@H](CC(C)C)C(=O)N[C@@H](CC(C)C)C(=O)N[C@@H](CC(=O)O)C(=O)NCC(=O)NCC(=O)N1CCC[C@H]1C(=O)N[C@@H](CO)C(=O)N[C@@H](CO)C(=O)NCC(=O)N[C@@H](C)C(=O)N1CCC[C@H]1C(=O)N1CCC[C@H]1C(=O)N1CCC[C@H]1C(=O)N[C@@H](CO)C(N)=O)C(C)C)C(=O)O` [compound 10], the pEC50 at GLP-1 receptor and on glucagon receptor was 11.30 throughout.
As for `CCCCCCCCCCCCCCCC(=O)N[C@@H](CCC(=O)NCCCC[C@H](NC(=O)[C@H](CC(=O)O)NC(=O)[C@H](CO)NC(=O)[C@@H](NC(=O)[C@H](Cc1ccccc1)NC(=O)[C@@H](NC(=O)CNC(=O)[C@H](CCC(N)=O)NC(=O)[C@H](C)NC(=O)CCc1ccc(O)cc1)[C@@H](C)O)[C@@H](C)O)C(=O)N[C@@H](CO)C(=O)N[C@@H](CCCCN)C(=O)N[C@@H](Cc1ccc(O)cc1)C(=O)N[C@@H](CC(C)C)C(=O)N[C@@H](CC(=O)O)C(=O)N[C@@H](CCC(=O)O)C(=O)N[C@@H](CCCNC(=N)N)C(=O)N[C@@H](C)C(=O)N[C@@H](C)C(=O)N[C@@H](CCC(N)=O)C(=O)N[C@@H](CC(=O)O)C(=O)N[C@@H](Cc1ccccc1)C(=O)N[C@H](C(=O)N[C@@H](CCC(N)=O)C(=O)N[C@@H](Cc1c[nH]c2ccccc12)C(=O)N[C@@H](CC(C)C)C(=O)N[C@@H](CC(C)C)C(=O)N[C@@H](CCC(=O)O)C(=O)NCC(=O)NCC(=O)N1CCC[C@H]1C(=O)N[C@@H](CO)C(=O)N[C@@H](CO)C(=O)NCC(=O)N[C@@H](C)C(=O)N1CCC[C@H]1C(=O)N1CCC[C@H]1C(=O)N1CCC[C@H]1C(=O)N[C@@H](CO)C(N)=O)C(C)C)C(=O)O` [compound 11] (Desaminotyrosyl-AQGTFTSDK([γGlu-Palmitoyl])SKYLDERAAQDFVQWLLEGGPSSGAPPPS-NH2), the figures for the negative-log EC50 (pEC50) on GLP-1 receptor, on GIP receptor and on glucagon receptor were 11.70, 11.70 and 10.80, respectively.
For the compound `CCCCCCCCCCCCCCCC(=O)N[C@@H](CCC(=O)NCCCC[C@H](NC(=O)[C@H](CC(=O)O)NC(=O)[C@H](CO)NC(=O)[C@@H](NC(=O)[C@H](Cc1ccccc1)NC(=O)[C@@H](NC(=O)CNC(=O)[C@H](CCC(N)=O)NC(=O)[C@H](C)NC(=O)[C@@H](Cc1ccc(O)cc1)NC(C)=O)[C@@H](C)O)[C@@H](C)O)C(=O)N[C@@H](CO)C(=O)N[C@@H](CCCCN)C(=O)N[C@@H](Cc1ccc(O)cc1)C(=O)N[C@@H](CC(C)C)C(=O)N[C@@H](CC(=O)O)C(=O)N[C@@H](CCC(=O)O)C(=O)N[C@@H](CCCNC(=N)N)C(=O)N[C@@H](C)C(=O)N[C@@H](C)C(=O)N[C@@H](CCC(N)=O)C(=O)N[C@@H](CC(=O)O)C(=O)N[C@@H](Cc1ccccc1)C(=O)N[C@H](C(=O)N[C@@H](CCC(N)=O)C(=O)N[C@@H](Cc1c[nH]c2ccccc12)C(=O)N[C@@H](CC(C)C)C(=O)N[C@@H](CC(C)C)C(=O)N[C@@H](CCC(=O)O)C(=O)NCC(=O)NCC(=O)N1CCC[C@H]1C(=O)N[C@@H](CO)C(=O)N[C@@H](CO)C(=O)NCC(=O)N[C@@H](C)C(=O)N1CCC[C@H]1C(=O)N1CCC[C@H]1C(=O)N1CCC[C@H]1C(=O)N[C@@H](CO)C(N)=O)C(C)C)C(=O)O` [compound 12], the results for the negative-log EC50 (pEC50) at GLP-1 receptor, on GIP receptor and on glucagon receptor were 11.52, 11.70 and 11.15, respectively.
